Test results published in patent US10363251B2, “(+)-morphinans as antagonists of toll-like receptor 9 and therapeutic uses thereof” (Mallinckrodt LLC, priority 2009, dated 2019).

Molecular target: T1, TLR9 (Homo sapiens, UniProt Q9NR96)
T1 construct: expressed in transfected cells; host or cells: HEK293
T1 sequence (Q9NR96 26-1032): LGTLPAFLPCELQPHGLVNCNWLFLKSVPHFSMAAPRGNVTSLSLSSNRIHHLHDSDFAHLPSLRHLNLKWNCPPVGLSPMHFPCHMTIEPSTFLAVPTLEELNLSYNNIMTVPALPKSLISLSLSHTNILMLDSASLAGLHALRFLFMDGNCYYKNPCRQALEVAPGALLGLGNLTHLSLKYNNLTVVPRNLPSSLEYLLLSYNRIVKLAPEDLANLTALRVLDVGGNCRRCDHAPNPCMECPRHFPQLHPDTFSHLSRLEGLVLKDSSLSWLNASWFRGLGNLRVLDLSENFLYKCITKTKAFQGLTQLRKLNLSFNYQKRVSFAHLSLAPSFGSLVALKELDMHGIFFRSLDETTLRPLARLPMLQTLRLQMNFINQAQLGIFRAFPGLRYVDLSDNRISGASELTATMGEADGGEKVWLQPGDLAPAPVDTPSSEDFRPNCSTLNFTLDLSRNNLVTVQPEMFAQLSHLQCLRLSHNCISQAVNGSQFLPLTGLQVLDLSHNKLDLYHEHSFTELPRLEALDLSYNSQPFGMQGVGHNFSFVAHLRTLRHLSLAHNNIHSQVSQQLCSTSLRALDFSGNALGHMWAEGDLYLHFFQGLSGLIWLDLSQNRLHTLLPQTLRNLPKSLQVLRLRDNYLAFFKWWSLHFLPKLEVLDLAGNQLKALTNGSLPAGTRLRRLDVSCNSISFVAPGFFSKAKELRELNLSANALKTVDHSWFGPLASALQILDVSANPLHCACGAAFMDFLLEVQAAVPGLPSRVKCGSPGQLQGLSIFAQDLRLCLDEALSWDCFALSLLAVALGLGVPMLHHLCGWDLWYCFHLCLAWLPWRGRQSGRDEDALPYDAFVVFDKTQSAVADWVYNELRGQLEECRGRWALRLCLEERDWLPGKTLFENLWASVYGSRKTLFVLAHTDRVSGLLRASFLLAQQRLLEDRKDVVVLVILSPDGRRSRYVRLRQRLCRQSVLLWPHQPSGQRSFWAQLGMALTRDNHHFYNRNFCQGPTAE
Experiment: TLR9 screening of (+)-morphinan library, SEAP reporter in HEK293 cells expressing TLR9
Type: cell-based
Conditions: activator ODN2006; for OD 650 nm (mean ± sd): control (no activator) 0.14, activator 1.42 OD; for inhibition at 0.1 µM: HEK293, read-out: % Inhibition (mean), 100 nM; for inhibition at 10 µM: HEK293, read-out: % Inhibition (mean), 10 μM
Method: The secreted alkaline phosphatase reporter is under the control of a promoter inducible by the transcription factor NF-κB. A library of more than 100 (+)-morphinan compounds was screened for TLR9 antagonist activity by assessing NF-κB activation in the HEK293 cells expressing TLR9. This reporter gene allows the monitoring of signaling through the TLR, based on the activation of NF-κB.
In a 96-well plate (200 μL total volume) containing 50,000 cells/well, 20 μL of each sample compound was added to wells, in triplicate, followed by a 30 minute incubation at 37° C. and 5% CO2. After the 30 minutes of incubation, 20 μL of the activator ODN2006 was added to each well. The media added to the wells was designed for the detection of NF-κB induced SEAP expression. After a 16-20 hr incubation period, the OD at 650 nm was read on a Beckman Coulter AD 340C Absorbance Detector. All compounds were tested at concentrations of 10 μM and 100 nM.

SMILES	OD 650 nm (mean ± sd) (100 nM) [OD]	OD 650 nm (mean ± sd) (10 μM) [OD]	inhibition at 0.1 µM [%]	inhibition at 10 µM [%]	% Inhibition (mean) (100 nM, 0.1 µM) [%]	% Inhibition (mean) (10 μM) [%]
COC1=C[C@]2(O)[C@@H]3Cc4ccc(OC)c(O)c4[C@]2(CCN3C)CC1=O [Compound I-30]	1.25 ± 0.11	0.94 ± 0.05	12	33		
COc1cc(Br)c2c3c1O[C@@H]1C(=O)CCC4C(C2)NCC[C@]341 (stereo partly shown) [II-1]	0.97 ± 0.04	0.19 ± −0.2	32	86		
C=CCN1CC[C@@]23c4c5c(-c6ccoc6)cc(OC)c4O[C@@H]2C(=O)CCC3C1C5 (stereo partly shown) [II-2]	1.23 ± 0.05	0.12 ± 0.01	13	92		
COc1cc(C(C)C)c2c3c1O[C@@H]1C(=O)CCC4C(C2)N(CC2CC2)CC[C@]341 (stereo partly shown) [II-4]	1.18 ± 0.06	0.11 ± 0.01	17	92		
COc1ccc2c3c1OC1C(O)CC[C@@H]4[C@H](C2)N(C)CC[C@@]314 (stereo partly shown) [II-7]	1.32 ± 0.08	0.13 ± 0.02	7	91		
COc1ccc2c3c1OC1C(OC(C)=O)CCC4C(C2)N(C)CC[C@]341 (stereo partly shown) [II-8]	1.15 ± 0.07	1.33 ± 0.06	19	7		
COc1ccc2c3c1O[C@@H]1C(NC(C)=O)CC[C@@H]4[C@H](C2)N(C)CC[C@@]314 (stereo partly shown) [II-9]	1.25 ± 0.09	1.00 ± 0.02	12	29		
COc1ccc2c3c1O[C@@H]1C(NCCO)CC[C@@H]4[C@H](C2)N(C)CC[C@@]314 (stereo partly shown) [II-10]	0.24 ± 0.02	0.10 ± 0.01	83	93		
COc1cc(Br)c2c3c1OC1C(=O)CC[C@@H]4[C@H](C2)N(C)CC[C@@]314 (stereo partly shown) [II-11]	1.22 ± 0.10	0.44 ± 0.05	14	69		
COc1ccc2c3c1O[C@@H]1C(=O)CC[C@@H]4[C@H](C2)NCC[C@@]314 [II-12]	1.12 ± 0.08	0.81 ± 0.03	21	43		
COC(=O)/C=C/c1cc(OC)c(O)c2c1CC1C3CCC(=O)C[C@@]23CCN1CC1CC1 (stereo partly shown) [II-14]	1.18 ± 0.05	0.13 ± 0.00	17	91		
COC(=O)/C=C/c1cc(OC)c2c3c1CC1C4CCC(=O)[C@@H](O2)[C@@]34CCN1CC1CC1 (stereo partly shown) [II-15]	1.22 ± 0.06	0.23 ± 0.03	14	84		
C=CCN1CC[C@@]23c4c5c(Br)cc(OC)c4O[C@@H]2C(=O)CCC3C1C5 (stereo partly shown) [II-16]	1.43 ± 0.01	1.24 ± 0.11	-1	13		
COc1ccc2c3c1O[C@@H]1C(O)CC[C@@H]4[C@H](C2)N(CC2CC2)CC[C@@]314 (stereo partly shown) [II-17]	1.13 ± 0.10	0.39 ± 0.01	21	72		
C=CCN1CC[C@@]23c4c5ccc(OC)c4OC2C(O)CCC3C1C5 (stereo partly shown) [II-19]	1.19 ± 0.03	0.15 ± 0.01	16	90		
C=CCN1CC[C@@]23c4c5ccc(OC)c4O[C@@H]2C(NC(C)=O)CC[C@@H]3[C@@H]1C5 (stereo partly shown) [II-20]	1.29 ± 0.02	1.07 ± 0.04	9	25		
C=CCN1CC[C@@]23c4c5ccc(OC)c4O[C@@H]2C(=C)CC[C@@H]3[C@@H]1C5 [II-22]	1.31 ± 0.19	0.75 ± 0.06	8	47		
COc1cc(Br)c2c3c1O[C@@H]1C(=O)CCC4C(C2)N(CC2CC2)CC[C@]341 (stereo partly shown) [II-23]	1.16 ± 0.01	0.53 ± 0.05	18	63		
COc1cc(-c2ccoc2)c2c3c1O[C@@H]1C(=O)CCC4C(C2)N(CC2CC2)CC[C@]341 (stereo partly shown) [II-26]	1.08 ± 0.06	0.12 ± 0.00	24	92		
COc1ccc2c3c1O[C@@H]1C(O)CC[C@@H]4[C@H](C2)N(CC2CCC2)CC[C@@]314 (stereo partly shown) [II-28]	1.32 ± 0.08	0.87 ± 0.03	7	39		
COc1ccc2c3c1O[C@@H]1C(=O)CC[C@@H]4[C@H](C2)N(Cc2ccccc2)CC[C@@]314 [II-29]	1.36 ± 0.17	0.33 ± 0.03	4	77		
COc1ccc2c3c1O[C@@H]1C(=O)CC[C@@H]4[C@H](C2)N(C(=O)C2CC2)CC[C@@]314 [II-30]	1.34 ± 0.11	1.13 ± 0.06			5	20
COc1ccc2c3c1O[C@@H]1C(=O)CC[C@@H]4[C@H](C2)N(C(C)=O)CC[C@@]314 [II-31]	1.40 ± 0.04	1.37 ± 0.11	2	3		
COc1ccc2c3c1O[C@@H]1C(=O)CC[C@@H]4[C@H](C2)N(C(=O)c2ccccc2)CC[C@@]314 [II-33]	1.35 ± 0.15	1.37 ± 0.03	5	3		
COC1=CC=C2[C@@H]3Cc4ccc(OC)c5c4[C@]2(CCN3C)[C@@H]1O5 [II-34]	1.39 ± 0.05	0.94 ± 0.08	2	34		
